Assay results as given in PMC3501516, “Anti-Diabetic Efficacy and Impact on Amino Acid Metabolism of GRA1, a Novel Small-Molecule Glucagon Receptor Antagonist” (PLoS ONE, 2012).
Marks after values point to notes of the source that are not given here.

What was measured:
DIO hGCGR mice = experiment: Chronic GRA1 treatment of diet-induced obese (DIO) hGCGR mice; assay type: in vivo, hGCGR mouse; conditions: for Free fatty acid, terminal plasma / Insulin, terminal plasma / LDL cholesterol, terminal plasma / Glucagon, terminal plasma / Triglyceride, terminal plasma / Non-LDL cholesterol, terminal plasma / Cholesterol, terminal plasma: 10 weeks; for Free fatty acid, terminal plasma: control 1.04±0.13; for Insulin, terminal plasma: control 8.5±2.0; for LDL cholesterol, terminal plasma: control 19.6±2.3; for Glucagon, terminal plasma: control 164±24; for Triglyceride, terminal plasma: control 181±11; for Non-LDL cholesterol, terminal plasma: control 205±12; for Cholesterol, terminal plasma: control 233±15
Excerpt: The present study made use of a line of hGCGR-expressing mouse (“hGCGR mouse”) generated previously by substituting the hGCGR gene for the mouse GCGR gene. These mice were crossed with C57BL/6J.ob/+ mice (Jackson Laboratories, Bar Harbor, ME) to obtain an hGCGR.ob/+ mouse line. The hGCGR.ob/+ mice were then intercrossed to obtain hGCGR.ob/ob, hGCGR.ob/+, and hGCGR.+/+ mice (with the hGCGR.ob/+ and hGCGR.+/+ mice serving as littermate controls). […] obese (DIO) hGCGR mice were generated by maintaining hGCGR mice on a high-fat diet (HFD) in which 45–60% of calories were in fat (Product S3282, Bio-Serv, Frenchtown, NJ). High-fat-diet-streptozotocin-treated (HFD/STZ) diabetic mice were generated in-house as previously described.
Animals were dosed chronically with GRA1 and the DPP-4 inhibitor des-fluoro-sitagliptin by administering these agents as food admixtures. The admixtures were prepared in-house and by Research Diets (New Brunswick, NJ), with drug concentrations adjusted weekly on the basis of average food consumption and animal weight to provide targeted daily doses. In the GRA1 experiments, the targeted doses were 3, 6, 10, and 30 mg/kg•day. In des-fluoro-sitagliptin experiments, the targeted dose was 200 mg/kg•day, a relatively high amount necessary because this compound has a half-life in rodents of 1–2 h.
Plasma glucagon and active GLP-1 were measured using commercial ELISA kits (Linco Research Immunoassay, St. Charles, MO). […] Plasma insulin was determined by ELISA with a commercial kit (ALPCO Diagnostics, Windham, NH). Plasma concentrations of glycated hemoglobin A1c (HbA1c) were measured using a Micromat II test kit from Bio-Rad Laboratories (Hercules, CA). Total cholesterol, low-density lipoprotein cholesterol (LDL-c) and non-LDL-c, and aspartate aminotransferase were measured using a Roche P Modular Clinical Chemistry analyzer (Indianapolis, IN).
Figure 4 GRA1 lowers blood glucose in the DIO hGCGR and hGCGR.ob/ob mouse. Mean (±SEM) blood glucose concentrations in (A) non-fasted and (B) fasted DIO hGCGR mice treated with approximately 3 and 10 mg/kg·day GRA1 provided as a food admixture. (Additional data from this study are in Table 2). (C) Mean (±SEM) blood glucose concentrations in the hGCGR.ob/ob mouse following single oral doses of 1, 3, or 10 mg/kg GRA1 or vehicle. (D) Mean (±SEM) non-fasted blood glucose concentrations in hGCGR.ob/ob mice treated for 2–8 weeks with control diet or 10 mg/kg·day GRA1 administered as diet admixture. *p<0.05, **p<0.01, and ***p<0.001 in timepoint-matched comparisons with controls; n = 8 in each group.

hGCGR mouse = experiment: Blunting of glucagon-induced blood glucose excursion in hGCGR mouse; assay type: in vivo; conditions: vehicle 1393±179
Experimental: In mouse studies of glucagon-induced excursions in blood glucose, animals were dosed orally with vehicle (10 mL/kg 0.5% aqueous methylcellulose) or GRA1 one hour prior to challenge by intraperitoneal injection of 15 µg/kg glucagon (Eli Lilly, Indianapolis, IN) or vehicle, [20]. In the studies in monkey, GRA1 or vehicle was administered to chair-restrained animals via a nasogastric tube 4 h prior to intramuscular injection of 15 µg/kg glucagon. Blood glucose measurements were made using a OneTouch glucometer (Lifescan, Milpitas, CA).
Figure 3 Blunting of glucagon-induced blood glucose excursions by GRA1 treatment in the (A) hGCGR mouse and (B) rhesus monkey. In (A), mice (n = 8) were administered vehicle or 3, 10 or 30 mg/kg GRA1, then challenged 1 h later (time 0) by intraperitoneal injection of 15 µg/kg glucagon or vehicle. Pharmacokinetic analysis determined that these animals had mean plasma GRA1 concentrations of 0.4, 0.9, and 4.7 µM, respectively, at 1 h postdose. In (B), monkeys (n = 4) were administered 1 mg/kg GRA1 4 h prior to intramuscular injection of 15 µg/kg glucagon or vehicle. At 1 h postdose, the mean plasma GRA1 concentration in these animals was 0.2 µM. *p<0.05; **p<0.01; and ***p<0.001 vs. glucagon-treated control animals.

COc1ccc2cc(-c3cc(-c4cc(C(F)(F)F)ccc4F)nn3[C@@H](C)c3ccc(C(=O)NCCC(=O)O)cc3)ccc2c1 [GRA1, N-[4-((1S)-1-{3-(2-fluoro-5-trifluoromethylphenyl)-5-[6-methoxynaphth-2-yl]-1H-pyrazol-1-yl}ethyl)benzoyl]-β-alanine]
Effect on blood glucose (DIO hGCGR mice; 1–10 weeks, 3 or 10 mg/kg•day): significant, sustained reductions in blood glucose
Food intake and body weight (DIO hGCGR mice; 3 or 10 mg/kg•day (data not shown)): not affected
Increase of plasma glucagon (DIO hGCGR mice; 3 or 10 mg/kg•day (either dose)): approximately 2 fold
Free fatty acid, terminal plasma (DIO hGCGR mice; 3 mg/kg•day): 0.84 ± 0.08 mM
Insulin, terminal plasma (DIO hGCGR mice; 3 mg/kg•day): 4.2 ± 1.1 ng/mL
LDL cholesterol, terminal plasma (DIO hGCGR mice; 3 mg/kg•day): 25.4±2.9 mg/dLl
Glucagon, terminal plasma (DIO hGCGR mice; 3 mg/kg•day): 374±53* pg/mL
Triglyceride, terminal plasma (DIO hGCGR mice; 3 mg/kg•day): 141±13* mg/dL
Non-LDL cholesterol, terminal plasma (DIO hGCGR mice; 3 mg/kg•day): 216 ± 16 mg/dL
Cholesterol, terminal plasma (DIO hGCGR mice; 3 mg/kg•day): 255 ± 17 mg/dL
Free fatty acid, terminal plasma (DIO hGCGR mice; 10 mg/kg•day): 0.69±0.04* mM
Insulin, terminal plasma (DIO hGCGR mice; 10 mg/kg•day): 5.7 ± 1.4 ng/mL
LDL cholesterol, terminal plasma (DIO hGCGR mice; 10 mg/kg•day): 19.4±2.4 mg/dLl
Glucagon, terminal plasma (DIO hGCGR mice; 10 mg/kg•day): 343 ± 85 pg/mL
Triglyceride, terminal plasma (DIO hGCGR mice; 10 mg/kg•day): 122±10** mg/dL
Non-LDL cholesterol, terminal plasma (DIO hGCGR mice; 10 mg/kg•day): 186 ± 7 mg/dL
Cholesterol, terminal plasma (DIO hGCGR mice; 10 mg/kg•day): 213 ± 8 mg/dL
Islet morphology and ratio of insulin-positive to glucagon-positive cells (pancreas immunohistochemistry) (DIO hGCGR mice; treated vs control (data not shown)): no significant differences
Baseline-subtracted mean AUC0–50 of glucagon-stimulated blood glucose excursion (hGCGR mouse; 3 mg/kg p.o. 1 h before 15 µg/kg glucagion i.p.): 812 ± 122 mg·min/dL
Baseline-subtracted mean AUC0–50 of glucagon-stimulated blood glucose excursion (hGCGR mouse; 10 mg/kg p.o. 1 h before 15 µg/kg glucagon i.p.): 543 ± 68 mg·min/dL
Baseline-subtracted mean AUC0–50 of glucagon-stimulated blood glucose excursion (hGCGR mouse; 30 mg/kg p.o. 1 h before 15 µg/kg glucagon i.p.): 476 ± 64 mg·min/dL
